# From US12370164B2, “Chlorogenic acid composition for promoting a healthy body weight” (Vidya Herbs, Inc., priority 2017, dated 2025)
# “And” between values parts separate entries of the source, which are not always exact repeats. Identical values can stand only once.
# Columns and labels:
# [1] = tested on: Salmonella typhimurium TA 100; assay type: cell-based; details: TA 100, +s9, positive control, concentration not given
# Description: This assay helps to identify substances that can produce genetic damage that leads to gene mutations. Mutant strains of Salmonella typhimurium that are used in AMES assay cannot synthesize histidine, and are very susceptible to additional mutations because they lack the normal repair mechanisms found in bacteria. These mutant strains are more permeable than wild-type bacteria to external chemicals, including potential mutagens. In order for these cells to survive on a plate that lacks histidine, they must regain the ability to synthesize histidine by undergoing another mutation that corrects the original mutation that prevented the production of the missing enzyme. This type of mutation is known as a back mutation, or reversion, because this second mutation returns the mutant to the wild-type (prototrophic) phenotype. This reversion can happen spontaneously due to incorrect DNA replication or as the result of a mutagen.
# In this assay specific strains of the bacteria Salmonella typhimurium (TA 98, TA 100) were used to detect mutations. […]
# Briefly, 0.5 ml of S9 mix (or 0.1 M phosphate buffer, pH 7.4), 0.1 ml of bacterial culture and 0.1 ml of test solution (or solvent) were added to each tube. […] After incubation for approximately 48 h the revertant colonies were counted.
# [2] = tested on: Salmonella typhimurium TA 98; assay: Ames Salmonella mutagenicity test, strain TA 98; assay type: cell-based; details: TA 98, +s9, positive control, concentration not given
# [3] = DPPH radical scavenging assay
# Protocol: The free radical scavenging capacity of the test sample was determined using DPPH scavenging assay. DPPH solution was prepared in 95% methanol. Freshly prepared DPPH solution was taken in test tubes and different concentration of test samples were added and incubated for 20 min. The absorbance was read at 517 nm using a spectrophotometer. Blank was prepared containing the same volume of reaction mixture without any tested samples. The percentage of scavenging was calculated using the formula: % Scavenging=Ac−As/Ac×100 Where AC was the absorbance of the control (blank) and AS was the absorbance in the presence of the composition (Braca et al., 2001). Results
# [4] = Superoxide anion scavenging activity
# Protocol: Prepared all the solutions in this experiment using phosphate buffer (pH 7.4). Added 1 ml of NBT (156 μM), 1 ml of NADH (468 μM) and 3 ml of test samples to all test tubes. The reaction was started by adding 100 ml of PMS (60 μM) and incubated the mixture at 25° C. for 5 min followed by measurement of absorbance at 560 nm. The percentage of scavenging was calculated using formula: % Scavenging=Ac−As/Ac×100 Where AC was the absorbance of the control (blank) and As was the absorbance in the presence of the composition.
# [5] = tested on: calf thymus DNA; assay: Protective effect on DNA scission induced by hydroxyl radical
# Protocol: In this assay hydroxyl radicals are typically generated within a mixture of ascorbic acid, H2O2 and Fe3+-ethylenediaminetetracetic acid (EDTA); those radicals that are not scavenged by other components of the reaction mixture will eventually attack deoxyribose, thus degrading it into a series of fragments.
# The experiment was conducted using calf thymus DNA. Briefly, the sample was dissolved in ethanol at 1 mg/mL. 50 μl of different concentration of sample was then separately taken into mini tubes followed by addition of 400 μL of phosphate buffer (0.2 mol/L, pH 7.4). Subsequently, 50 μL DNA sodium, 50 μL H2O2, 50 μL FeCl3 and 50 μL Na2EDTA (1 mmol/L) were added. The reaction was initiated by adding 50 μL ascorbic acid (18 mmol/L) and the total volume of the reaction mixture was adjusted to 800 μL with buffer. After incubation in a water bath at 55° C. for 20 min, the reaction was terminated by adding 250 μL TCA.
# The color was then developed by addition of 150 μL of TBA and heating in an oven at 105° C. for 15 min. The mixture was cooled and absorbance was measured at 532 nm against the buffer (as blank). The percent of protection against DNA damage is expressed Protective effect %=(1−A/A0)×100 Where A0 is the absorbance of the mixture without sample, and A is the absorbance of the mixture with sample. Results
smiles,measurement,setting,value
"Nc1ccc2cc3ccccc3cc2c1 [2AF, 2-aminoanthracene]",Revertant colonies/plate,[1],2737 ± 4.9 colonies/plate
same,Revertant colonies/plate,[2],1560 ± 3.53 colonies/plate
O=C1O[C@H]([C@@H](O)CO)C(O)=C1O [Ascorbic acid],% inhibition (DPPH scavenging),[3]; 20 μg/ml,83.21%
same,Absorbance @517 nm,[3]; 20 μg/ml,0.046
same,% inhibition (DPPH scavenging),[3]; 40 μg/ml,90.88%
same,Absorbance @517 nm,[3]; 40 μg/ml,0.025
same,% inhibition (DPPH scavenging),[3]; 60 μg/ml,94.53%
same,Absorbance @517 nm,[3]; 60 μg/ml,0.015
same,% inhibition (DPPH scavenging),[3]; 80 μg/ml,94.89%
same,Absorbance @517 nm,[3]; 80 μg/ml,0.014
same,% inhibition (DPPH scavenging),[3]; 100 μg/ml,96.72%
same,Absorbance @517 nm,[3]; 100 μg/ml,0.009
same,% inhibition (DPPH scavenging),"[3]; 100 μg/ml, listed as ascorbic acid",96.71%
same,% inhibition (superoxide scavenging),[4]; 20 μg/ml,84.80%
same,Absorbance @517 nm (superoxide scavenging),[4]; 20 μg/ml,0.038
same,% inhibition (superoxide scavenging),[4]; 40 μg/ml,85.20%
same,Absorbance @517 nm (superoxide scavenging),[4]; 40 μg/ml,0.037
same,% inhibition (superoxide scavenging),[4]; 60 μg/ml,88.40%
same,Absorbance @517 nm (superoxide scavenging),[4]; 60 μg/ml,0.029
same,% inhibition (superoxide scavenging),[4]; 80 μg/ml,89.20%
same,Absorbance @517 nm (superoxide scavenging),[4]; 80 μg/ml,0.027
same,% inhibition (superoxide scavenging),[4]; 100 μg/ml,89.60%
same,Absorbance @517 nm (superoxide scavenging),[4]; 100 μg/ml,0.026
COc1ccc(O)c(C(C)(C)C)c1 [BHA],% protective effect against DNA damage,[5]; 10 μg/ml,15.79 ± 0.89%
same,% protective effect against DNA damage,[5]; 20 μg/ml,19.25 ± 1.09%
same,% protective effect against DNA damage,[5]; 40 μg/ml,32.50 ± 2.12%
same,% protective effect against DNA damage,[5]; 60 μg/ml,39.16 ± 0.33%
same,% protective effect against DNA damage,[5]; 80 μg/ml,43.04 ± 0.29%
same,% protective effect against DNA damage,[5]; 100 μg/ml,51.37% and 51.37 ± 4.06%
